Here are results for three molecules from US20110152313A1 (MACQUARIE UNIVERSITY, priority 2008, published 2011).

What all share (assay): kinase binding screen (kinase-tagged T7 phage, qPCR), % Ctrl
(In general: In qPCR the cycle at which signal appears reflects the starting amount.)

One experiment has as its target BMPR1B (Homo sapiens, UniProt O00238). The method in brief:
(§1)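 Steps: grow T7 phage displaying kinase in BL21-derived E. coli; clarify lysate; combine with ligand-liganded, blocked beads and compound (single concentration, diluted from 40× DMSO stock); elute; quantify kinase by qPCR.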

In a further experiment the target is T1, ULK1 (Homo sapiens, UniProt O75385).
T1 sequence (O75385 1-1050): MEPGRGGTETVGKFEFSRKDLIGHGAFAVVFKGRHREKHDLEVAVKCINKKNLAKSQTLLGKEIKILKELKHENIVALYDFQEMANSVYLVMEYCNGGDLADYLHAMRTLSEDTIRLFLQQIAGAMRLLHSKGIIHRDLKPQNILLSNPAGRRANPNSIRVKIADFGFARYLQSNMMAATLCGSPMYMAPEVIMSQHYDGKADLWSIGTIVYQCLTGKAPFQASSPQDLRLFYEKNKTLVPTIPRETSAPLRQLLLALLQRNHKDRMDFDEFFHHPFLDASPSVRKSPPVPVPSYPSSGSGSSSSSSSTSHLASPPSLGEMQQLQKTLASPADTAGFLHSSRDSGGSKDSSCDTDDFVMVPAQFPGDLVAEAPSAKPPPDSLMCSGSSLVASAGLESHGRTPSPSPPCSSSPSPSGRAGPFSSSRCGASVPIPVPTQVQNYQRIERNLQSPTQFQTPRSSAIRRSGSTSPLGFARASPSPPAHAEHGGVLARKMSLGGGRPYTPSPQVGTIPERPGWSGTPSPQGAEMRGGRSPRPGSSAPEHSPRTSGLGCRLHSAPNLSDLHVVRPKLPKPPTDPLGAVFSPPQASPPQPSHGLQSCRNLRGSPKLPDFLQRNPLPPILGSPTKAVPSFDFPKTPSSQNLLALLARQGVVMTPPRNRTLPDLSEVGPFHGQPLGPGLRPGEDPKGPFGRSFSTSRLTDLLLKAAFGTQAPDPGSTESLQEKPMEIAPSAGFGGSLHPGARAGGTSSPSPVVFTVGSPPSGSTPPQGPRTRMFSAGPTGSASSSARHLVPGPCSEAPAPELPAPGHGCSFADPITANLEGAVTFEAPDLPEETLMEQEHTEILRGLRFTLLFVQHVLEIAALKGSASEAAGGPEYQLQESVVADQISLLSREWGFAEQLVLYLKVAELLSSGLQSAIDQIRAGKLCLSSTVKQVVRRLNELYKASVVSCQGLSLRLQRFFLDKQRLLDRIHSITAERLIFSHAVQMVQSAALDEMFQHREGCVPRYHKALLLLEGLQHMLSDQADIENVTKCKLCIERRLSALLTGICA
In short, it runs like this:
as §1

The target of another experiment is T2, CAMK4 (Homo sapiens, UniProt Q16566).
T2 sequence (Q16566 1-473): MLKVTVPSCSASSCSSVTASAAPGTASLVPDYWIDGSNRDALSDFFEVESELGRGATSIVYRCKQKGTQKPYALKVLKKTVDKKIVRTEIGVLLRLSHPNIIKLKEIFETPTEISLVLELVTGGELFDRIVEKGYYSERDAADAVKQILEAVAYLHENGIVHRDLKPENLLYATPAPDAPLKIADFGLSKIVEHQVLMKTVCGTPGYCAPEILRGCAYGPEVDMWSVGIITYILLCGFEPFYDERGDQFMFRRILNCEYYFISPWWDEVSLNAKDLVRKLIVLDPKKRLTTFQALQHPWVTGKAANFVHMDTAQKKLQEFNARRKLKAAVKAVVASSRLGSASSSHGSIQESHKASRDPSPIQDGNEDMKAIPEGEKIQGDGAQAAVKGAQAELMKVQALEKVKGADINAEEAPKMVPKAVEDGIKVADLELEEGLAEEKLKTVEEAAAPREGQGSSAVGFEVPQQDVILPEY
In short, it runs like this: as §1

A further experiment has as its target T3, CDKL5 (Homo sapiens, UniProt O76039).
T3 sequence (O76039 1-960): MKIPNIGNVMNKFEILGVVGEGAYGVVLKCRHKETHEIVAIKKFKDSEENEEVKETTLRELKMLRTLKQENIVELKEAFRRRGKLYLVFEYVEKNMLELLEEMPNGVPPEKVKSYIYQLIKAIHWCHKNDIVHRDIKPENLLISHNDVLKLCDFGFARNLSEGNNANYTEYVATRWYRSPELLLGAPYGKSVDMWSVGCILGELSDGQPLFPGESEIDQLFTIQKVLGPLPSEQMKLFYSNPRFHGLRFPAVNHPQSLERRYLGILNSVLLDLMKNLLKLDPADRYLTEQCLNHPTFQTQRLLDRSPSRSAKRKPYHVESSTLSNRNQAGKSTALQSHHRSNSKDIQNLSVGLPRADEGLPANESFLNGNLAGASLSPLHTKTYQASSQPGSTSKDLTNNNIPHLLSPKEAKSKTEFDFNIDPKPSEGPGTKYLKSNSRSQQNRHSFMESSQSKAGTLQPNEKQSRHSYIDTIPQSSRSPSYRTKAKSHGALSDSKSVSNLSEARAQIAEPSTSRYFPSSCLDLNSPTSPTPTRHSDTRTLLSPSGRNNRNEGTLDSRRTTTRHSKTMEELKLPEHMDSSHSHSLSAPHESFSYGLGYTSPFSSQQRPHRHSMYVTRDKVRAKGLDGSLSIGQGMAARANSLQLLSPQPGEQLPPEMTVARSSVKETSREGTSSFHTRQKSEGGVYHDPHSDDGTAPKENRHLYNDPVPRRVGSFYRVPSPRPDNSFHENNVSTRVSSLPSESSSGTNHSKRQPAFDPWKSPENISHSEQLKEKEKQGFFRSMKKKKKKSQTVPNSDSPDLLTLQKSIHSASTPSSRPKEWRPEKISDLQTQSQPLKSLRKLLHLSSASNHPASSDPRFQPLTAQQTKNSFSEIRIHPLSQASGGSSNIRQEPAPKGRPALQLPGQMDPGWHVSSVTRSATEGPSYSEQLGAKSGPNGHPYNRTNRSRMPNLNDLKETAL
In short, it runs like this: as §1

Chain of BMPR1B (O00238 14-502): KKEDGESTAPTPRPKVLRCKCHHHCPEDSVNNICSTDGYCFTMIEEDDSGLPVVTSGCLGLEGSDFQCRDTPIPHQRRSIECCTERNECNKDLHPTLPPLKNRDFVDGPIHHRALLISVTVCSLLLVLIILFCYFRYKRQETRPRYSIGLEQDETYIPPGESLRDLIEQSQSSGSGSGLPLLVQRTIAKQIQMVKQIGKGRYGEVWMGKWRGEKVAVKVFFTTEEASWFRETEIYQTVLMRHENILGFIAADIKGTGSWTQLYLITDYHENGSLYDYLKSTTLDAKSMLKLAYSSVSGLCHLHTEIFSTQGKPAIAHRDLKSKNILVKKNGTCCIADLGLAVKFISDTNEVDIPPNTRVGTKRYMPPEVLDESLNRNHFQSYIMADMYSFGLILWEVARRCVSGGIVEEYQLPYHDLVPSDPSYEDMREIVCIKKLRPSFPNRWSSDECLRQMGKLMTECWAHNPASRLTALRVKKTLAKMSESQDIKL

One may read the remaining activity as the signal under treatment as a percentage of the control signal. Higher therefore signals a small loss of activity. For `Nc1nc2c(-c3ccccn3)nccc2[nH]1` [drawing 35, 4-(pyrid-2-yl)-1H-imidazo[4,5-c]pyridin-2-amine], the remaining activity at 1 µM on BMPR1B was 85%; at ULK1, 33%; on CAMK4, 100%; on CDKL5, 50%.

Turning to `Nc1nc2c(-c3cc(Br)c(Br)[nH]3)nccc2[nH]1` [Ageladine A, ageladine A, reference compound], the remaining activity at 1 µM was determined as 100% on BMPR1B, 62% on ULK1, 100% on CAMK4 and 54% on CDKL5. In addition, the remaining activity at 10 µM turned out to be 78% on BMPR1B (10 μM), 20% on ULK1 (10 μM), 97% on CAMK4 (10 μM) and 40% at CDKL5 (10 μM).

As for `Nc1nc2c(-c3cnc4ccccc4c3)nccc2[nH]1` [drawing 36, 4-(quinolin-3-yl)-1H-imidazo[4,5-c]pyridin-2-amine], the remaining activity at 1 µM at BMPR1B amounted to 0%; at ULK1 it was 91%; at CAMK4, 100%; on CDKL5, 54%.
